# Laboratory results from US10342796B2, “Acrylanilide derivative, preparation method, and applications thereof in pharmacy” (Ancureall Pharmaceutical (Shanghai) Co., Ltd., priority 2015, dated 2019).
# Read-outs that look alike come from different tables or passages of the source.
# How the values were obtained:
# HEL (Jak2 V167F) = assay: Growth inhibition GI50 in vitro (CCK8/MTT, 72 h); type: cell-based; settings: Homo sapiens
# Protocol: Jak2 is a kind of non-receptor PTK (Janus Kinase 2) with great significance in cell growth, differentiation and transformation. Jak2 gene mutation often leads to bone marrow hyperplasia and transformation. Especially Jak2 V167F mutation is common for clinical patients. Human erythroleukemia cell line HEL expressing Jak2 V167F was cultured with 1×RPMI1640 complete medium (supplement with 10% FBS).
# (§1) The suspension cells were collected by centrifugation. The supernatant was discard and the cell pellet was resuspended and counted. Different cell concentrations (5˜10×10^4 cells/mL) were prepared according to the growth cycle of each cell line and then seeded on a 96-well plate (Corning), 100 μL/well. The cells were incubated over night at 37° C., 5% CO2. The compounds were added to the cells on the second day with 2 wells in parallel. The final concentration of organic solvent shall not exceed 1%. The cells were continually incubated for 72 h, and then subjected to MTT assay.
# (§2) The present compounds and the reference compounds were dissolved with DMSO (Sigma), respectively. […] The storage concentration of compounds was 10 mM and kept at −20° C. They were diluted by 2 times or 10 times with serial dilution before using.
# (§3) Dojindo CCK8 reagent kit was used as MTT assay. […] FC meter was used as microplate reader.
# (§4) Adherent cell culture medium was discard and immediately replaced with fresh prepared medium which contains 10% CCK8 reagent (100 μL/well). For the suspension cells, CCK8 was directly added to 10% of the final concentration. The cells were continually incubated for 1˜4 h. When the color of control wells turned to dark yellow, the absorption value was measured at OD450 nm. The cell growth rate was calculated according to the following formula: cell growth rate (%)=100*(T−T0)/(C−T0), T=optical density of drug treatment cell well—optical density of blank control well; T0=optical density of cell well before drug treatment—optical density of blank control well; C=optical density of cell well of solvent control group—optical density of blank control well. […] The experiment was independently repeated 1˜3 times, and subject to biological statistical analysis.
# (§5) Growth inhibition assay was conducted in the cell lines shown Table 14 with the different oncogene mutations. Each compound started at 1000 nM as an initial concentration and was diluted by 2 times with serial dilution to 0.03 nM.
# H1581 (FGFR1 amp) = assay: Growth inhibition GI50 in vitro (CCK8/MTT, 72 h); type: cell-based; settings: Homo sapiens, NCI-H1581, H1581, EGFR wt
# Protocol: (§6) Human NSCLC cell line NCI-H1581(ATCC) contains FGFR1 gene amplification and high expression. Human gastric cancer cell line SNU-16(ATCC) contains FGFR2 gene amplification and high expression. They were cultured with 1×RPMI1640 complete medium (10% FBS), respectively.
# as §1, §2, §3, §4, §5
# SNU-16 (FGFR2 amp) = assay: Growth inhibition GI50 in vitro (CCK8/MTT, 72 h); type: cell-based; settings: Homo sapiens, SNU-16, EGFR wt
# Protocol: as §6, §1, §2, §3, §4, §5
# [1] = test system: A375 (EGFR wt, BRAF V600E); assay: Growth inhibition GI50 in vitro (CCK8/MTT, 72 h); type: cell-based; settings: Homo sapiens, A-375
# Description: EGFR wild type cell lines: human epidermal cancer cell line A431 (EGFR WT, amplification and high expression, from Shanghai Cell Bank of Chinese Academy of Sciences and ATCC), NSCLC cell lines NCI-H460 (EGFR WT, Kras G61H and PI3KCA E545K mutants, ATCC) and NCI-H1299 (EGFR WT, ATCC), melanoma cell line A375 (EGFR WT and BRAF V600E mutant, from Shanghai Cell Bank of Chinese Academy of Sciences, ATCC), human lung cancer cell line NCI-H292 (EGFR WT, from human lung mucoepidermoid carcinoma/lymphatic metastasis, purchased from Shanghai Cell Bank of Chinese Academy of Sciences) were cultured with 1×RPMI1640 complete medium which was supplement with 10% FBS. NSCLC cell line A549 (EGFR WT and Kras G12S mutant, from Shanghai Cell Bank of Chinese Academy of Sciences) was cultured with 1×Ham'S F12K complete medium which was supplement with 10% FBS, 1% double-antibiotics and 2 mM glutamine.
# as §1, §2, §3, §4, §5
# Pharmacokinetics in rat = type: in vivo, Sprague-Dawley (SD) rats; settings: male, Sprague-Dawley, plasma, SD rat, iv 5 mg/kg, solvent water
# Protocol: Sprague-Dawley (SD) rats (male) were purchased from Shanghai SIPPR BK Laboratory Animals Co. and kept under specific pathogen-free conditions adaptively for 7 days in the Shanghai University of Traditional Chinese Medicine animal care facility (All animal studies were conducted with the approval of the University Ethics Committee). The rats were randomly divided to 2 groups (3 rats/group) for each compound. One group was administrated by tail vein injection (iv) and the other group was intragastrically administrated. The compound was formulated into a clear aqueous solution with methanesulfonic acid, PH>3.5. The rats were starved for 12 hours before drug administration and the blood samples were collected from the orbital plexus at 0 min (before drug administration), 2 min, 5 min, 15 min, 30 min, 1 h, 2 h, 4 h, 6 h, 8 h and 24 h, respectively. Each blood sample was added to a 1.5 mL centrifuge tube with heparin sodium and then centrifuged at 8000 rpm at 4° C. for 3 min. Upper blood serum was collected. The compound concentration in plasma was determined by LC-MS/MS. The pharmacokinetics parameters were calculated with the professional pharmacokinetics software WinNonlin. The experiment was repeated once.
# [2] = HEL, Jak2 V167F, read-out: GI50
# [3] = A375, EGFR wt, BRAF V600E, read-out: GI50
Compound,GI50 (H1581 (FGFR1 amp)),GI50 (SNU-16 (FGFR2 amp)),"GI50 [1, 3]",bioavailability (Pharmacokinetics in rat; po 25 mg/kg),bioavailability (Pharmacokinetics in rat; po 50 mg/kg),GI50 (HEL (Jak2 V167F)),GI50 [1],GI50 (HEL (Jak2 V167F); [2])
"C=CC(=O)Nc1cc(Nc2nccc(-c3cn(C)c4ccccc34)n2)c(OC)cc1N(C)CCN(C)C [AZD9291, reference compound]",> 1000 nM,> 1000 nM,,,,> 1000 nM,> 1000 nM,
"C=CC(=O)Nc1cc(Nc2nccc(-n3ccc4ccc(F)cc43)n2)c(OC)cc1N(C)CCN(C)C [Compound 63, N-(5-(4-(6-fluoro-1H-indol-1-yl)-pyrimidin-2-ylamino)-2-((2-(dimethylamino)ethyl)-methyl-amino)-4-methoxyl-phenyl)-acrylamide]",,,,55.8%,,,,
"C=CC(=O)Nc1cc(Nc2nccc(-n3ccc4c(OC)cccc43)n2)c(OC)cc1N(C)CCN(C)C [Compound 99, N-(5-(4-(4-methoxyl-1H-indol-1-yl)-pyrimidin-2-ylamino)-2-(2-(dimethylamino-ethyl)-methyl-amino)-4-methoxyl-phenyl)-acrylamide]",,,,,40.9%,,,
"C=CC(=O)Nc1cc(Nc2cc(Nc3ccc(F)c(Cl)c3)ncn2)c(OC)cc1N1CCN(C2CCN(C)CC2)CC1 [Compound 147, N-(5-(6-(3-chloro-4-fluoro-phenylamino)-pyrimidin-4-ylamino)-4-methoxyl-2-(4-(1-methylpiperidin-4-yl)-piperazin-1-yl)-phenyl)-acrylamide]",> 1000 nM,> 1000 nM,> 1000 nM,,,,,> 1000 nM
C=CC(=O)Nc1cc(Nc2cc(-c3cn(C(C)C)c4ccccc34)ncn2)c(OC)cc1N(C)CCN(C)C [Compound 183],> 1000 nM,> 1000 nM,> 1000 nM,,,,,> 1000 nM

# Continued, in another order:
GI50 (H1581 (FGFR1 amp)),GI50 (SNU-16 (FGFR2 amp)),"GI50 [1, 3]",bioavailability (Pharmacokinetics in rat; po 25 mg/kg),bioavailability (Pharmacokinetics in rat; po 50 mg/kg),Compound,GI50 (HEL (Jak2 V167F)),GI50 [1],GI50 (HEL (Jak2 V167F); [2])
> 1000 nM,> 1000 nM,> 1000 nM,,,"C=CC(=O)Nc1cc(Nc2nccc(Nc3cccc(Cl)c3)n2)c(OC)cc1N(C)CCN(C)C [Compound 2, N-(5-(4-(3-chloro-phenylamino)-pyrimidin-2-ylamino)-2-(2-(dimethylamino-ethyl)-methyl-amino)-4-methoxyl-phenyl)-acrylamide]",,,> 1000 nM
> 1000 nM,> 1000 nM,> 1000 nM,50.3%,,"C=CC(=O)Nc1cc(Nc2nccc(Nc3ccc(OCc4ccccn4)c(Cl)c3)n2)c(OC)cc1N(C)CCN(C)C [Compound 18, N-(5-(4-(3-chloro-4-(pyridin-2-methoxyl)phenylamino)pyrimidin-2-ylamino)-2-((2-(dimethylamino)ethyl)(methyl)amino)-4-methoxyl-phenyl)-acrylamide]",,,> 1000 nM
> 1000 nM,> 1000 nM,> 1000 nM,,,"C=CC(=O)Nc1cc(Nc2ncc(Cl)c(Nc3ccc(OCc4ccccn4)c(Cl)c3)n2)c(OC)cc1N(C)CCN(C)C [Compound 19, N-(5-(5-chloro-4-(3-chloro-4-(pyridin-2-methoxyl)phenylamino)-pyrimidin-2-ylamino)-2-((2-(dimethylamino)ethyl)(methyl)amino)-4-methoxyl-phenyl)-acrylamide]",,,> 1000 nM
> 1000 nM,> 1000 nM,> 1000 nM,,,C=CC(=O)Nc1cc(Nc2nccc(-n3cnc4ccccc43)n2)c(OC)cc1N(C)CCN(C)C [Compound 106],,,> 1000 nM
> 1000 nM,> 1000 nM,465 nM,,,"C=CC(=O)Nc1cc(Nc2ncnc(Nc3cccc(F)c3)n2)c(OC)cc1N(C)CCN(C)C [Compound 114, N-(5-(4-(3-fluoro-phenylamino)-[1,3,5]triazin-2-ylamino)-2-((2-dimethylamino-ethyl)-methyl-amino)-4-methoxyl-phenyl)-acrylamide]",,,> 1000 nM
> 1000 nM,> 1000 nM,465 nM,,,C=CC(=O)Nc1cc(Nc2ncnc(Nc3cccc(Br)c3)n2)c(OC)cc1N1CCC(N2CCCC2)CC1 [Compound 118],,,> 1000 nM
> 1000 nM,> 1000 nM,> 1000 nM,,,"C=CC(=O)Nc1cc(Nc2cc(Nc3ccc(F)c(Cl)c3)ncn2)c(OC)cc1N(C)CCN(C)C [Compound 140, N-(5-(6-(3-chloro-4-fluoro-phenylamino)-pyrimidin-4-ylamino)-2-((2-dimethylamino-ethyl)-methyl-amino)-4-methoxyl-phenyl)-acrylamide]",,,> 1000 nM
